Measured values as given in patent publication US20260240841A1, “COMBINATION OF HPK1 INHIBITOR AND AXL INHIBITOR IN CANCER THERAPY” (BOARD OF REGENTS, THE UNIVERSITY OF TEXAS SYSTEM, priority 2023, published 2026).

Legend:
mouse PDAC models = settings: cited from earlier work
[1] = system: orthotopic KPC-Luc pancreatic tumors; assay: Orthotopic KPC-Luc pancreatic cancer model treated with MRTX1133; assay type: in vivo, mouse; settings: for tumor weight: 25 mg/kg twice daily for ten days, weighed seven days after completion, FIG. 10
Experimental: (§1) For sub-cutaneous xenograft studies, the C57BL/6 female or male mice aged 5-7 weeks (Jackson Labs) were used. 1×10^6 KPC-Luc cells or 2×10^5 B16F10 melanoma cells were injected into the dorsal region of the wild type (WT) or HPK1-mice. Animals were imaged using the IVIS Spectrum, PerkinElmer and Bruker ICON MRI at 3 and 10 days after successful implantation of KPC-Luc cells. Only mice with similar tumor volume (~150 mm^3) were used for treatment studies. These experiments were randomized. […] Mice were euthanized for tumor collection once tumor volume was approximately ~1000 mm^3. For orthotopic studies, 0.5×10^6 KPC-Luc cells were implanted orthotopically into WT C57BL/6 mice and/or HPK1^−/− mice pancreas. Bioluminescence imaging with the IVIS Spectrum (Perkin Elmer) was performed after intraperitoneal injection of 1.5 mg of D-luciferin (PerkinElmer). After image acquisition, the Living Image 4.7 software (PerkinElmer) was used for analysis of images. Therapy was initiated at day 10 post tumor cell injection. All mice were sacrificed on Day 35 for survival study or otherwise labeled in the Figures.
(§2) To examine the effects of pharmacological inhibition of Axl, Kras, and HPK1 with or without Anti-41BB/CD137 on tumor growth, Axl inhibitor (Bemcentinib MedChem Express) was dosed at 10 mg/kg/day for intraperitoneal injection (IP). HPK1-IN-7 (HPK1 inhibitor #1 MedChem Express) was dosed at 20 mg/kg/day orally, GNE1858 (HPK1 inhibitor #2 MedChem Express) was dosed at 10 mg/kg/day orally. KRAS^G12D inhibitor (MRTX1133, MedChem Express) was dosed at 25 mg/Kg twice daily for intraperitoneal injection. Anti-41BB (clone LOB12.3, BioXCell, BE0169) antibody and its corresponding isotype IgG controls were intraperitoneally administered at 200 μg per injection for three times per week. The duration of treatment was 10 days. Tumor size was measured every other day using the methods as previously described.
To further evaluate the association, tumor size was determined in mice treated with MRTX1133. […]

pancreatic cancer = settings: Ludwig et al.; cited from earlier work
KPC-Luc cells = assay: KPC-Luc tumor growth in WT C57BL/6 mice under Axl inhibitor, HPK1 inhibitor, CD137 antibody and combinations; assay type: in vivo, mouse; settings: treated 10 days
Experimental: as §1
To examine the effects of pharmacological inhibition of Axl, Kras, and HPK1 with or without Anti-41BB/CD137 on tumor growth, Axl inhibitor (Bemcentinib MedChem Express) was dosed at 10 mg/kg/day for intraperitoneal injection (IP). HPK1-IN-7 (HPK1 inhibitor #1 MedChem Express) was dosed at 20 mg/kg/day orally, GNE1858 (HPK1 inhibitor #2 MedChem Express) was dosed at 10 mg/kg/day orally. […] Tumor size was measured every other day using the methods as previously described.
Tumors were grown in wild-type mice, and treatment was performed as described above. Following treatment, tumors were excised from the mice and both tumor volume and tumor weight were measured.
To further study the synergistic effects of the combination therapy, tumors were grown in wild-type mice and treatment was performed as described above. Following treatment, tumors were excised from the mice and tumor weight was evaluated. […]

[2] = system: orthotopic xenograft tumors of KPC-Luc cells; assay: Multicolor flow cytometry of intra-tumoral hematopoietic cells from KPC-Luc xenograft tumors; assay type: in vivo, mouse
Experimental: For flow cytometry studies, orthotopic xenograft tumors of KPC-Luc cells from the HPK1−/− or wild type control were digested in digestion buffer (1 mg/mL collagenase IV and 10 U/mL DNase I in Dulbecco's Modified Eagle Medium (DMEM)) at 37° C. for 30 minutes. After thorough mixing, the samples were pushed through a 70-μm cell strainer and washed with 40 ml DMEM without fetal bovine serum (FBS), The digested cells were re-suspended in 37 % Percoll and overlaid on top of the same volume of 70% Percoll. After centrifugation at 800 g for 20 minutes with break off, the lymphocytes were isolated from the interface and rinsed with PBS. The cells were first stained by Zombie UV, followed by incubation in a cocktail comprising the following antibodies in cell staining buffer: anti-CD45, anti-CD38, anti-B220, anti-CD11b, anti-F4/80, anti-Ly6C, anti-Ly6G, anti-CD4, anti-IA/IE, and anti-CD8g. After washing, the stained cells were submitted for multiple-color flow cytometry. The results were processed using FlowJo software.
Following tumor xenograft imaging, the tumors were excised from the mice and subsequently prepared for flow cytometry as described above.

[3] = system: orthotopic xenograft tumors of KPC-Luc cells; assay: IVIS bioluminescence imaging of orthotopic KPC-Luc xenograft tumors treated with Axl inhibitor; assay type: in vivo, mouse; settings: imaged 17 days post implantation with KPC-Luc cells
Experimental: as §1, with “All mice were sacrificed on Day 35 for survival study or otherwise labeled in the Figures.” left out
To examine the effects of pharmacological inhibition of Axl, Kras, and HPK1 with or without Anti-41BB/CD137 on tumor growth, Axl inhibitor (Bemcentinib MedChem Express) was dosed at 10 mg/kg/day for intraperitoneal injection (IP). […] Tumor size was measured every other day using the methods as previously described. […]

B16F10 melanoma cells = assay: Subcutaneous B16F10 melanoma xenograft model; assay type: in vivo, mouse; settings: for tumor weight: FIG. 12B
Experimental: as §1, §2
To evaluate the therapeutic effect of an Axl inhibitor, bemcentinib, on melanoma, subcutaneous tumors of subcutaneous melanoma xenograft model of B16F10 cells in HPK1 knockout mice and wild type mice were treated with 10 mg/kg/day bemcentinib by intraperitoneal injection (IP) twice daily for 10 days. The tumor volumes (FIG. 12A) and tumor weight (FIG. 12B) were measured at 12 days after the completion of treatment.
Subcutaneous melanoma xenograft tumors of B16F10 cells were grown in wild-type mice, and treatment was performed as described above. Following treatment, tumors were excised from the mice at day 12 after completion of therapy and both tumor volume and tumor weight were measured.

C#Cc1c(F)ccc2cc(O)cc(-c3ncc4c(N5CC6CCC(C5)N6)nc(OC[C@@]56CCCN5C[C@H](F)C6)nc4c3F)c12 [MRTX1133]
tumor growth (mouse PDAC models): shrink tumors or halt the growth | tumor weight ([1]; HPK1 knockout mice): significant decrease in tumor weight | tumor weight ([1]; wild type mice): slight decrease in tumor weight | response of tumor size shown by luminescence ([1]; wild-type mice versus HPK1 knockout mice, 25 mg/kg IP twice daily, imaged 7 days after treatment, FIG. 9): less responsive than the HPK1 knockout mice

Nc1nc(Nc2ccc3c(c2)CC[C@@H](N2CCCC2)CC3)nn1-c1cc2c(nn1)-c1ccccc1CCC2 [BGB324]
aggressiveness of pancreatic cancer (pancreatic cancer): inhibits the aggressiveness of pancreatic cancer | sensitivity of pancreatic cancer cells to gemcitabine (pancreatic cancer): sensitizes pancreatic cancer cells to gemcitabine | tumor immune microenvironment (pancreatic cancer): induces an immune stimulatory microenvironment

Nc1nc(Nc2ccc3c(c2)CC[C@@H](N2CCCC2)CC3)nn1-c1cc2c(nn1)-c1ccccc1CCC2 [bemcentinib]
tumor volume (KPC-Luc cells; measured 15 days after completion of treatment, FIG. 6A): did not significantly decrease | tumor weight compared to control (in words) (KPC-Luc cells; weighed 12 days after completion, control about 0.6 grams, FIG. 7): only minimally reduced | tumor weight compared to control (KPC-Luc cells; weighed 15 days after completion of treatment, FIG. 6B): reduced the tumor weight to a small degree | CD3+ T cells and CD8+ T cells in the tumor microenvironment ([2]; HPK1 knockout mice, FIG. 4B): increased | infiltration of macrophages and myeloid suppressor cells ([2]; HPK1 knockout mice, tumor microenvironment, FIG. 4B): decreased the infiltration | number or function of B cells, CD3+ cells, CD4+ T cells, CD8+ T cells, CD11b+ cells, M-MDSC's, PMN-MDSC's, macrophages, neutrophils ([2]; wild-type mice, intra-tumoral, FIG. 4A): did not increase or decrease | tumor growth (luminescence) ([3]; HPK1 knockout mice, FIG. 3B): inhibited the growth of the tumor | tumor volume (luminescence) ([3]; wild type mice, FIG. 3A): little to no decrease in the tumor volume | tumor volume (B16F10 melanoma cells; HPK1 knockout mice, 10 mg/kg/day IP for 10 days, 12 days after completion, FIG. 12A): significant decrease | tumor weight (B16F10 melanoma cells; HPK1 knockout mice, 10 mg/kg/day IP for 10 days, 12 days after completion): significant decrease | tumor volume (B16F10 melanoma cells; wild type mice, 10 mg/kg/day IP for 10 days, 12 days after completion, FIG. 12A): slight decrease | tumor weight (B16F10 melanoma cells; wild type mice, 10 mg/kg/day IP for 10 days, 12 days after completion): slight decrease | tumor volume (B16F10 melanoma cells; wild-type mice, inhibitor comparison, treated 10 days, day 12 after completion, FIG. 13A): did not significantly decrease | tumor weight compared to control (B16F10 melanoma cells; wild-type mice, inhibitor comparison, treated 10 days, day 12 after completion, FIG. 13B): reduced the tumor weight to a small degree
